From article PMC3872530 (Molecular microbiology, 2013)

Legend:
Test in all cases: whole-cell EPR of [2Fe-2S] cluster
Assay type in all cases: cell-based
PaSoxR = PaSoxR (Pseudomonas aeruginosa, UniProt Q51506); conditions: oxidant, 40 min, E. coli XA90, EPR at 15 K
EcSoxR = target: T1, EcSoxR (Escherichia coli, UniProt P0ACS2); conditions: oxidant, 40 min, E. coli XA90, EPR at 15 K
T1 sequence (P0ACS2 1-154): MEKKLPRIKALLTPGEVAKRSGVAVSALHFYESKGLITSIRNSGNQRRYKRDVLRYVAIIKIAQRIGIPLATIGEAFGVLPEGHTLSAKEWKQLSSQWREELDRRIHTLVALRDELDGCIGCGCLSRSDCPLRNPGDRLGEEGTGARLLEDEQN

ScSoxR = target: T2, ScSoxR (Streptomyces coelicolor, UniProt Q9S255); conditions: oxidant; 50 uM, 40 min, E. coli XA90, EPR at 15 K
T2 sequence (Q9S255 1-175): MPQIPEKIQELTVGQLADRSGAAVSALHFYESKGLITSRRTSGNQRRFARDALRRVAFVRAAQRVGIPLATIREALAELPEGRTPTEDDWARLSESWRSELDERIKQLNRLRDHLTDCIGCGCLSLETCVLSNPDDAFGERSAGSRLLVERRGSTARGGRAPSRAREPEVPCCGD

PaSoxR, sequence (Q51506 whole entry): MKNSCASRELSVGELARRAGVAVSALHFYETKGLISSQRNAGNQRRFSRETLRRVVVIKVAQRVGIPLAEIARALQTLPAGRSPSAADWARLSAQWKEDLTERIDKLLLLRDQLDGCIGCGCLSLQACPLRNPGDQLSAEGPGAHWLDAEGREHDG

SMILES | whole-cell EPR of [2Fe-2S] cluster (PaSoxR; 50 uM) | whole-cell EPR of [2Fe-2S] cluster (EcSoxR; 50 uM) | whole-cell EPR of [2Fe-2S] cluster (ScSoxR) | whole-cell EPR of [2Fe-2S] cluster (PaSoxR; 100 uM, partial effect) | whole-cell EPR of [2Fe-2S] cluster (EcSoxR; 100 uM)
C[n+]1c2ccccc2nc2ccccc21 [PMS, phenazine methosulfate] | PMS always silenced the spectral peaks | The spectra disappeared upon treatment with PQ and PMS | The cluster was oxidized to its EPR-silent state when the cells were treated with PMS |  | 
C[n+]1ccc(-c2cc[n+](C)cc2)cc1 [PQ, paraquat] |  |  |  | PQ was partially effective in oxidizing the [2Fe-2S] cluster | The spectra disappeared upon treatment with PQ and PMS
